For orientation: IC50 means the concentration at which inhibition is half-maximal.

≈ marks a conversion by molar mass, not a printed value.

Experimental findings from patent US20100029752A1, “NOVEL COMPOUNDS, PHARMACEUTICAL COMPOSITIONS CONTAINING SAME, AND METHODS OF USE FOR SAME” (priority 2005, published 2010) are described below.

Assay [1] relates to MCF-7 human breast cancer cells. In words: Crystal violet cell growth assay. The following applies: MCF7, MCF-7 cells, 72 hours, read-out: Cr. Violet (IC50). The class given is cell-based. The procedure:
The crystal violet assay measures cell growth but not cytotoxicity. This assay employs crystal violet staining of fixed cells in 96-well plates with subsequent solubilization and measurement of OD490 on a spectrophotometer. The OD490 corresponds to cell growth per unit time measured. Cells are treated with the compounds of interest or vehicle controls and IC50 for each compound is computed.
To measure the cytotoxicity of specific compounds against cancer cells, 5×10^4 MCF-7 human breast cancer cells, obtained from the American Type Culture Collection are plated per well in 24 well plates in DMEM medium with 10% fetal bovine serum, penicillin, and streptomycin. Following overnight culture at 37° C. and 5% CO2, the compounds to be tested, dissolved in DMSO, are added to the wells in 1 μl volume at the following concentrations: 50, 40, 30, 20, and 10 μg/ml in triplicate. Additional concentrations are tested if required. 1 μl of DMSO is added to triplicate wells are the vehicle control. C75 is run at 10, and 5 μg/ml in triplicate as positive controls.
After 72 hours of incubation, cells are stained with 0.5 ml of Crystal Violet stain (0.5% in 25% methanol) in each well. After 10 minutes, wells are rinsed, air dried, and then solubilized with 0.5 ml 10% sodium dodecylsulfate with shaking for 2 hours. Following transfer of 100 μl from each well to a 96-well plate, plates are read at OD490 on a Molecular Devices SpectraMax Plus Spectrophotometer Average OD490 values are computed using SOFTmax Pro Software (Molecular Devices) and IC50 values are determined by linear regression analysis using Prism version 3.02 (Graph Pad Software, San Diego).

In assay [2] the target is T1, purified human FAS (Homo sapiens, UniProt P49327).
T1 construct: Human FAS was purified from cultured ZR-75-1 human breast cancer cells obtained from the American Type Culture Collection; endogenous in cells; host or cells: ZR-75-1 human breast cancer cells (ATCC); enzyme purified by PEG precipitation and Mono Q chromatography
T1 sequence (P49327 whole entry): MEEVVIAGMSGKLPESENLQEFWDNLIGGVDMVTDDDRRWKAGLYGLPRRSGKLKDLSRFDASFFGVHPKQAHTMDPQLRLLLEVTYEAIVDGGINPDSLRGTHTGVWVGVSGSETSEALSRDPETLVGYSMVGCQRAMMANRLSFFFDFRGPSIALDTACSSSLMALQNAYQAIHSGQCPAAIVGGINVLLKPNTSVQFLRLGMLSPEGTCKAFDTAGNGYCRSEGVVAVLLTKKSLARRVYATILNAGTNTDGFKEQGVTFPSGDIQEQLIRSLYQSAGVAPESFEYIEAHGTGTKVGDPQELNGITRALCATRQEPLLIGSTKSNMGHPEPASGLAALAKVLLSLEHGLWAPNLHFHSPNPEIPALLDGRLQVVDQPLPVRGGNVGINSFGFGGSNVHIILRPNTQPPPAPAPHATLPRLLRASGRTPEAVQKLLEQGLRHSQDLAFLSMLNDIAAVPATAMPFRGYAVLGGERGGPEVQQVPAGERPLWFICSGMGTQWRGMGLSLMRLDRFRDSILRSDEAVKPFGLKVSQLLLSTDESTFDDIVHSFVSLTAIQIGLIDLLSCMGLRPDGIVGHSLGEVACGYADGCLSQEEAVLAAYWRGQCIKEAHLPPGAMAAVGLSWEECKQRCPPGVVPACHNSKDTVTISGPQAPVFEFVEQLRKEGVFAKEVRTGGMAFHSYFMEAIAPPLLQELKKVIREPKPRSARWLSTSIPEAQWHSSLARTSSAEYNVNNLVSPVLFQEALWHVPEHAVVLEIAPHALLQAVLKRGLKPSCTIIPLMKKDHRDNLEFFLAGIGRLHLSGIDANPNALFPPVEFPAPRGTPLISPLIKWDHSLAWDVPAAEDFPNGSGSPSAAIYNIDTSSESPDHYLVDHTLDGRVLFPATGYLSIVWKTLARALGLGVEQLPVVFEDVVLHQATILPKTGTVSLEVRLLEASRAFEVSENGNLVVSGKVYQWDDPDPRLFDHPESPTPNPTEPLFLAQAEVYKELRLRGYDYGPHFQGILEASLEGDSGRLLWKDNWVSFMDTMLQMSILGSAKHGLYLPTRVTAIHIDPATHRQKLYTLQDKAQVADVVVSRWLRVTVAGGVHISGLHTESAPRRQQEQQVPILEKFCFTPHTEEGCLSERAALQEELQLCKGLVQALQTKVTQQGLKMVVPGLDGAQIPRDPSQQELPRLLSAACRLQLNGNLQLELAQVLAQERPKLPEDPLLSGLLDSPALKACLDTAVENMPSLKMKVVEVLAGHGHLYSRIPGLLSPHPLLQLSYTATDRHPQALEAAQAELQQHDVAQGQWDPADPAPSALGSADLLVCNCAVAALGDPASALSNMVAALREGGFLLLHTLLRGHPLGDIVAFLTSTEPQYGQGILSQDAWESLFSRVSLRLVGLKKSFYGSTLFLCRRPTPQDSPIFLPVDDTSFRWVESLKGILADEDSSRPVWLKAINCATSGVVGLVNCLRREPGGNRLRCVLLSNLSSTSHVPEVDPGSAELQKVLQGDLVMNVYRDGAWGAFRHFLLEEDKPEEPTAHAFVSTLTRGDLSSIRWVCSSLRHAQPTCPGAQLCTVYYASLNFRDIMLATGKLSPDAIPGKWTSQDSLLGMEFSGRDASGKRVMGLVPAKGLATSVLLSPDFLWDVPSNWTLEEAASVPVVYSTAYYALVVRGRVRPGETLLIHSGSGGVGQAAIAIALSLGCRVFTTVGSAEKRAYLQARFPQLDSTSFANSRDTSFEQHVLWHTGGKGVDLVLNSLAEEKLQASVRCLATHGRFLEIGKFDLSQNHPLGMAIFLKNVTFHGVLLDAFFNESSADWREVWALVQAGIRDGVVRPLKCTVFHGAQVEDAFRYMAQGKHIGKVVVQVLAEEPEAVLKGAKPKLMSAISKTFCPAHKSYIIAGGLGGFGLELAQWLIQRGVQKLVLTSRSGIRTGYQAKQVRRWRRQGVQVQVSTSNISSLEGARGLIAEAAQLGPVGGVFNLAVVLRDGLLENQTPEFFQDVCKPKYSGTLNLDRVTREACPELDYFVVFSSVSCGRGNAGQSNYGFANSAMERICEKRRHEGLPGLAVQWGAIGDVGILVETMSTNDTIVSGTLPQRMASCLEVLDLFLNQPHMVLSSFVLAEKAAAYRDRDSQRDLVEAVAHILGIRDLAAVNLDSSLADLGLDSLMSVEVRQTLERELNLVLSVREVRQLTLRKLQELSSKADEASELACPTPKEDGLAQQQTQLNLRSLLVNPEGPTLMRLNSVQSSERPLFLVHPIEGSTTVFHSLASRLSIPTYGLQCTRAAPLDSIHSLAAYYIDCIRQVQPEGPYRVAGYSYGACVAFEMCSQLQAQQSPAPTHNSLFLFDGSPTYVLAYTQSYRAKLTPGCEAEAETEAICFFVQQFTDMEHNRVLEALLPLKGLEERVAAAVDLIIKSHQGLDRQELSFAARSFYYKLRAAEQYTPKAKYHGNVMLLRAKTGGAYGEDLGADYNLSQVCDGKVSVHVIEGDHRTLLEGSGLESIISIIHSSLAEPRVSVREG
In words: FAS enzymatic activity (malonyl-CoA dependent NADPH oxidation). Format: biochemical. The following applies: purified FAS from ZR-75-1 cells, OD340. Here is the method:
Human FAS was purified from cultured ZR-75-1 human breast cancer cells obtained from the American Type Culture Collection. The procedure, adapted from Linn et al., 1981, and Kuhajda et al., 1994, utilizes hypotonic lysis, successive polyethyleneglycol (PEG) precipitations, and anion exchange chromatography. ZR-75-1 cells are cultured at 37° C. with 5% CO2 in RPMI culture medium with 10% fetal bovine serum, penicillin and streptomycin.
Ten T150 flasks of confluent cells are lysed with 1.5 ml lysis buffer (20 mM Tris-HCl, pH 7.5, 1 mM EDTA, 0.1 mM phenylmethanesulfonyl fluoride (PMSF), 0.1% Igepal CA-630) and dounce homogenized on ice for 20 strokes. The lysate is centrifuged in JA-20 rotor (Beckman) at 20,000 rpm for 30 minutes at 4° C. and the supernatant is brought to 42 ml with lysis buffer. A solution of 50% PEG 8000 in lysis buffer is added slowly to the supernatant to a final concentration of 7.5%. After rocking for 60 minutes at 4° C., the solution is centrifuged in JA-20 rotor (Beckman) at 15,000 rpm for 30 minutes at 4° C. Solid PEG 8000 is then added to the supernatant to a final concentration of 15%. After the rocking and centrifugation is repeated as above, the pellet is resuspended overnight at 4° C. in 10 ml of Buffer A (20 mM K2HPO4, pH 7.4). After […] filtration, the protein solution is applied to a Mono Q 5/5 anion exchange column (Pharmacia). The column is washed for 15 minutes with buffer A at 1 ml/minute, and bound material is eluted with a linear 60-ml gradient over 60 minutes to 1 M KCl. FAS (MW˜270 kD) typically elutes at 0.25 M KCl in three 0.5 ml fractions identified using 4-15% SDS-PAGE with Coomassie G250 stain (Bio-Rad). FAS protein concentration is determined using the Coomassie Plus Protein Assay Reagent (Pierce) according to manufacturer's specifications using BSA as a standard. This procedure results in substantially pure preparations of FAS (>95%) as judged by Coomassie-stained gels.
FAS activity is measured by monitoring the malonyl-CoA dependent oxidation of NADPH spectrophotometrically at OD340 in 96-well plates (Dils et al and Arslanian et al, 1975). Each well contains 2 μg purified FAS, 100 mM K2HPO4, pH 6.5, 1 mM dithiothreitol (Sigma), and 187.5 μM β-NADPH (Sigma). Stock solutions of inhibitors are prepared in DMSO at 2, 1, and 0.5 mg/ml resulting in final concentrations of 20, 10, and 5 μg/ml when 1 μl of stock is added per well. For each experiment, cerulenin (Sigma) is run as a positive control along with DMSO controls, inhibitors, and blanks (no FAS enzyme) all in duplicate.
The assay is performed on a Molecular Devices SpectraMax Plus Spectrophotometer. The plate containing FAS, buffers, inhibitors, and controls are placed in the spectrophotometer heated to 37° C. Using the kinetic protocol, the wells are blanked on duplicate wells containing 100 μl of 100 mM K2HPO4, pH 6.5 and the plate is read at OD340 at 10 sec intervals for 5 minutes to measure any malonyl-CoA independent oxidation of NADPH. The plate is removed from the spectrophotometer and malonyl-CoA (67.4 μM, final concentration per well) and […] (61.8 μM, final concentration per well) are added to each well except to the blanks. The plate is read again as above with the kinetic protocol to measure the malonyl-CoA dependent NADPH oxidation. The difference between the ΔOD340 for the malonyl-CoA dependent and non-malonyl-CoA dependent NADPH oxidation is the specific FAS activity. Because of the purity of the FAS preparation, non-malonyl-CoA dependent NADPH oxidation is negligible.
The concentration of compound yielding 50% inhibition of FAS is the IC50. Graphs of ΔOD340 versus time are plotted by the SOFTmax PRO software (Molecular Devices) for each compound concentration. Computation of linear regression, best-fit line, r^2, and 95% confidence intervals are calculated using Prism Version 3.0 (Graph Pad Software).

As for `CCCCCCCCNC(=O)c1cc(O)c(C(=O)OC)s1`, the half-maximal inhibitory concentration (IC50) in assay [1] is 38.8 µg/mL (≈ 124 µM). Moreover, in assay [2], the “FAS (IC50)” value is “Neg”.
With `CCCCCCCCNNC(=O)c1cc(O)c(C(=O)OC)s1`, the IC50 in assay [1] turned out to be 31.7 µg/mL (≈ 96.5 µM). Also, in assay [2], the “FAS (IC50)” value is given as “Neg”.
For `C=CCNC(=O)c1cc(O)c(C(=O)OC)s1`, in that order: over 80 µg/mL and “Neg”.
For the compound `COC(=O)c1sc(C(=O)O)cc1O`, the IC50 in assay [1] is over 80 µg/mL. Also, the “FAS (IC50)” value in assay [2] is “Neg”.
Turning to `CCCCCCCCNC(=O)c1cc(O)cs1`, the IC50 in assay [1] was determined as 8.5 ± 2.1 µg/mL (≈ 33.3 µM). Also, in assay [2], the “FAS (IC50)” value was “Neg”.
Regarding `COC(=O)c1sc(C(=O)NNc2ccc(Cl)cc2)cc1O`, the IC50 is 18.1 ± 4.4 µg/mL (≈ 55.4 µM) in assay [1] and 230 µM in assay [2].
